Results published in patent US20230073449A1, “STROMA-FREE T CELL DIFFERENTIATION FROM HUMAN PLURIPOTENT STEM CELLS” (THE CHILDREN'S MEDICAL CENTER CORPORATION, priority 2020, published 2023).
“Also recorded” adds a separate entry of the source.

Key:
[1] = test system: 5F cells (5F HSPCs); test: Primary screen of Cayman epigenetic library in 5F cells, stromal-free T cell differentiation (proT readout); type: cell-based, human; conditions: for CD5+ CD7+ %: 5F cells, control cells 11.60%; for CD5+ CD7+ % / Z score: e.g., at 500 nM; for Z score: calculated from the number of T progenitors after treatment, Z score greater than 3 = primary hit; for proT cells generated from 5F HSPCs after treatment with primary hits (fold change / number): first screen, FIG. 8
Description: FIG. 6 is a schematic showing a primary screen for small molecule inhibitors of epigenetic factors that promote T cell specification, using the stromal-free T cell differentiation methods as described herein. “5F cells” refer to cells expressing 5 transcription factors (HOXA9, ERG, RORA, SOX4, and MYB). The Cayman epigenetic library contains more than 140 small molecules that are known to modulate the activity of a variety of epigenetic ‘writers and erasers’ and ‘reader’ proteins. It may include compounds that modulate the activity of methyltransferases, demethylases, histone acetyltransferases, histone deacetylases, and acetylated histone binding proteins; see e.g., caymanchem.com/product/11076/epigenetics-screening-library-(96-well).
FIG. 7 is a scatterplot showing identification of primary hits from the screen described in FIG. 6. Z scores were calculated for all the small molecules based on the number of T progenitors after treatment. Any small molecule with a Z score greater that 3 was considered as a primary hit. See e.g., Table 2.
FIG. 8 is a bar chart showing fold change of the proT cells generated from 5F HSPCs after treatment with primary hits identified in FIG. 7 (see e.g., Table 2).
(§1) A group of epigenetic regulators were tested for their ability to promote T cell differentiation. […] UNCO224 is an inhibitor of G9a/GLP, so a variety of other G9a/GLP inhibitors were tested.

[2] = test system: iPSC-derived CD34+ hemogenic endothelial (HE) cells; test: Second screen and dose response in wild type iPSC-derived CD34+ hemogenic endothelial (HE) cells, stromal-free T cell differentiation; type: cell-based, human; conditions: for proT cells generated from CD34+ HE cells after treatment with G9a inhibitors at different doses: FIG. 13B-13F; for Exemplary effective dose(s): promotion of T cell differentiation from CD34+ HE cells, 13B-13F
Experimental: FIG. 9 is a schematic showing a second screen using wild type iPSC-derived CD34+ hemogenic endothelial (HE) cells (not 5F HSPCs, e.g., as used in […] and Table 2), to test small molecule inhibitors of epigenetic factors for promotion of T cell differentiation.
FIG. 10A-10B is a series of graphs showing the results of the screen from FIG. 9. FIG. 10A is a scatterplot of Z scores, which were calculated for all the small molecules based on the number of T progenitors after treatment. Any small molecule with a Z score greater that 3 was considered as a primary hit. FIG. 10B is a bar graph showing verification of the primary hits. Primary hits were tested in triplicate.
FIG. 12A is a schematic summarizing the experiments (see e.g., FIG. 6-11, Table 2). FIG. 12B is a bar chart showing fold change of proT cells generated from CD34^+ HE cells after treated with UNCO224 at different doses.
FIG. 13A-13F is a series of schematics and graphs showing that G9 inhibitors promote T cell differentiation using the stromal-free differentiation methods as described herein. FIG. 13A is a schematic summarizing the experiments (see e.g., FIG. 6-12, Table 2). FIGS. 13B-13E are a bar charts showing fold change of proT cells generated from CD34^+ HE cells after treatment with other G9a inhibitors at different doses.
as §1

[3] = test system: class I HDAC (e.g., HDAC1, HDAC2, HDAC3); conditions: cited from earlier work
[4] = test system: HDAC; conditions: pan-HDAC, with exception for HDAC6; cited from earlier work
[5] = target: class III isoenzyme SIRT1 (Homo sapiens, UniProt Q96EB6); conditions: cited from earlier work
class III isoenzyme SIRT1, sequence (Q96EB6 whole entry): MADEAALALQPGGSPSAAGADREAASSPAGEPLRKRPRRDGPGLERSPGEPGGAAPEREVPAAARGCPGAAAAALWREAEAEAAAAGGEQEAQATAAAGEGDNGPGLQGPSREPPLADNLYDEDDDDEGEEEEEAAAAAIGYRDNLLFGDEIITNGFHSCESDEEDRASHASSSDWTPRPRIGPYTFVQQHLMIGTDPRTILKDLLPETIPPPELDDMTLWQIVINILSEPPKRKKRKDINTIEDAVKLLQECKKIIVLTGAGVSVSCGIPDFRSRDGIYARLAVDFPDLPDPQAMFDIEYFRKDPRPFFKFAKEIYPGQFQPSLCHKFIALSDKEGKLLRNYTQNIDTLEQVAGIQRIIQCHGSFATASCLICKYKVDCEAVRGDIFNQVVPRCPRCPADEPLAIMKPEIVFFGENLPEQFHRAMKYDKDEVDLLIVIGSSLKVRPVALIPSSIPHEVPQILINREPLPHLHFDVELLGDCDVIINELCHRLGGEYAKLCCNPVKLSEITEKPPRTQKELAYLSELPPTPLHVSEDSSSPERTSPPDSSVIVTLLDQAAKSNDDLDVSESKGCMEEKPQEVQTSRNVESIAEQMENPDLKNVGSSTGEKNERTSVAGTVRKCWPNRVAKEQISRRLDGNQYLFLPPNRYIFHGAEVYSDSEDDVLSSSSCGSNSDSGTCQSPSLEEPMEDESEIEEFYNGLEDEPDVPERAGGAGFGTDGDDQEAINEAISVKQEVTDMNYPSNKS

[6] = test system: CD34+ CD45+ HSPC cells; test: T cell differentiation of CD34+ CD45+ HSPCs after UNC0224 treatment; type: cell-based, human
Experimental: (§2) FIG. 14A-14C is a series of schematics and graphs showing that UNCO224 enhances T cell commitment at expense of erythroid/myeloid potential. FIG. 14A is a schematic showing a test of whether UNCO224 specifically affects T cell differentiation. iPSC-derived CD34+ HE cells were treated with UNCO224 and differentiated into CD34+ CD45+ hematopoietic stem and progenitor cells (HSPC). These HSPCs were used to generate T cells, erythroid cells, and myeloid cells to determine their multipotency. FIG. 14B is a bar chart showing fold change of proT cells generated from CD34+ CD45+ HSPC cells after treatment with UNCO224 (500 nM). […] FIG. 14C is a bar chart showing number of different types of colonies generated from CD34+ CD45+ HSPCs in a colony-forming unit (CFU) assay. E, erythroid; M, macrophage; G, granulocyte; GM, granulocyte/macrophage; GEMM, granulocyte/erythroid/macrophage/megakaryocyte.
FIG. 15A-15C is a series of graphs showing that UNCO224 promotes T cell specification rather than cell proliferation. FIG. 14B is a bar chart showing fold change of proT cells generated from CD34+ CD45+ HSPC cells after treatment with UNCO224 (500 nM). […] FIG. 14B is a bar chart showing fold change of total cell numbers after 14 days of T cell differentiation of CD34+ CD45+ HSPCs treated with DMSO or UNCO224. […] FIG. 14C is a bar chart showing the percentage of proT cells generated from CD34+ CD45+ HSPCs treated with DMSO or UNCO224. […] N=3, **** P≤0.0001.
(§3) UNCO224 enhanced T cell commitment at expense of erythroid/myeloid potential. […] UNCO224 also promoted T cell specification rather than cell proliferation. […] Without wishing to be bound by theory, it is anticipated that H3K9 methylation mediates repression of lymphoid genes. As such, treatment with inhibitors of H3K9 methylation (see e.g., FIG. 6-16, Tables 2-3) promotes T cell differentiation, e.g., when using stromal-free T cell differentiation methods as described herein. Such H3K9 methylation inhibitors can be used in place of, or in combination with, inhibition of histone methyltransferases (e.g., EZH1 knockdown).

[7] = test system: CD34+ CD45+ HSPCs; test: Colony-forming unit (CFU) assay of CD34+ CD45+ HSPCs; type: cell-based, human; conditions: FIG. 14C
Experimental: as §2
as §3, with “Such H3K9 methylation inhibitors can be used in place of, or in combination with, inhibition of histone methyltransferases (e.g., EZH1 knockdown).” left out

[8] = test system: MDA-MB-231 cells; conditions: in MDA-MB-231 cells; cited from earlier work

Compound | CD5+ CD7+ % [1] [%] | Z score [1] | also measured
O=C(CCCCCCC(=O)Nc1ccc(I)cc1)NO [4-iodo-SAHA] | 25.3 | 5.895 | 
COc1cc2nc(N3CCCN(C)CC3)nc(NC3CCN(Cc4ccccc4)CC3)c2cc1OC [BIX01294] |  |  | proT cells generated from CD34+ HE cells after treatment with G9a inhibitors at different doses [2]: capable of promoting T cell differentiation; also recorded: significantly increased; Exemplary effective dose(s) ([2]; FIG. 12B): 200 nM
COC(=O)c1ccc2c(c1)nc(NC(=O)c1ccccc1)n2CCCc1ccccc1 [BRD4770] |  |  | proT cells generated from CD34+ HE cells after treatment with G9a inhibitors at different doses [2]: capable of promoting T cell differentiation; also recorded: significantly increased; Exemplary effective dose(s) ([2]; FIG. 12B): 200 nM
CN(C)c1ccc(C(=O)NCCCCCC(=O)NO)cc1 [CAY10398] | 36.9 | 4.181 | 
COCCCn1c(N)c(C(=O)NC2CCCC2)c2nc3ccccc3nc21 [CAY10591] | 25.9 | 8.576 | proT cells generated from 5F HSPCs after treatment with primary hits (fold change / number) [1]: significantly increased; also recorded: confirmed to promote T cell specification
Cn1cc(/C=C/C(=O)c2cccc(F)c2)cc1/C=C/C(=O)NO [MC1568] | 14.0 | 5.829 | proT cells generated from 5F HSPCs after treatment with primary hits (fold change / number) [1]: significantly increased; also recorded: confirmed to promote T cell specification; inhibition of class I HDAC activity [3]: Class II HDAC (e.g., HDAC4 and HDAC5) inhibitor. Displays no inhibition of class I HDAC activity (e.g., HDAC1, HDAC2, HDAC3).
O=C(CCCCCCC(=O)Nc1cccnc1)NO [Pyroxamide] | 11.6 | 3.122 | 
CNCc1ccc(-c2[nH]c3cc(F)cc4c3c2CCNC4=O)cc1 [Rucaparib] | 37.2 | 0.4679 | 
O=C(CCCCCCC(=O)Nc1ccccc1)NO [SAHA, suberoylanilide hydroxamic acid] | 34.7 | 7.987 | 
CCCCc1nc2cc(/C=C/C(=O)NO)ccc2n1CCN(CC)CC [SB939] | 39.4 | 5.042 | IC50 [4]: 40 to 140 nM; activity against SIRT1 [5]: no activity
Cc1cc(Nc2ccc(NC(=O)c3ccc(Nc4ccnc5ccccc45)cc3)cc2)nc(N)n1 [SGI-1027] | 19.9 | 0.09357 | 
O=C(CCCCCN1C(=O)c2cccc3cccc(c23)C1=O)NO [Scriptaid] | 19.7 | 3.857 | 
COc1cc2c(NC3CCN(C)CC3)nc(N3CCCN(C)CC3)nc2cc1OCCCN(C)C [UNC0224] | 15.0 | 3.475 | proT cells generated from 5F HSPCs after treatment with primary hits (fold change / number) ([1]; listed as UNCO224): significantly increased; also recorded: confirmed to promote T cell specification; proT cells generated from CD34+ HE cells after treatment with G9a inhibitors at different doses [2]: capable of promoting T cell differentiation; fold change of proT cells generated from CD34+ HE cells at different doses ([2]; dose response, FIG. 12B): dose-dependent manner; proT cells generated from CD34+ HE cells (verification of primary hits) ([2]; second screen, primary hits tested in triplicate, FIG. 10B, listed as UNCO224): significantly increased; also recorded: significant increase; fold change of CD5+ CD7+ proT cells generated from CD34+ CD45+ HSPC cells ([6]; UNC0224 500 nM vs DMSO, FIG. 14B/15A): significant increase; fold change of total cell numbers ([6]; after 14 days of T cell differentiation, vs DMSO): significant decrease; percentage of CD5+ CD7+ proT cells ([6]; vs DMSO, N=3): significant increase; number of erythroid or myeloid lineage colonies [7]: significant decrease
COc1cc2c(NC3CCN(CC4CCCCC4)CC3)nc(N3CCCN(C(C)C)CC3)nc2cc1OCCCN1CCCCC1 [UNC0631] |  |  | IC50 [8]: 25 nM
COc1cc2c(NC3CCN(C(C)C)CC3)nc(C3CCCCC3)nc2cc1OCCCN1CCCC1 [UNC0638] |  |  | proT cells generated from CD34+ HE cells after treatment with G9a inhibitors at different doses [2]: capable of promoting T cell differentiation; also recorded: significantly increased; Exemplary effective dose(s) ([2]; FIG. 12B): 8 nM
COc1cc2c(NC3CCN(C(C)C)CC3)nc(N3CCC(F)(F)CC3)nc2cc1OCCCN1CCCC1 [UNC0642] |  |  | proT cells generated from CD34+ HE cells after treatment with G9a inhibitors at different doses [2]: capable of promoting T cell differentiation; also recorded: significantly increased; Exemplary effective dose(s) ([2]; FIG. 12B): 40 nM
COc1cc2c(NC3CCN(C4CCCCC4)CC3)nc(N3CCCN(C(C)C)CC3)nc2cc1OCCCN1CCCCC1 [UNC0646] |  |  | IC50 [8]: 26 nM
CC(C)C(C(=O)Nc1ccc(C(=O)NO)cc1)c1ccccc1 (stereo not shown) [s-HDAC-42] | 43.2 | 4.263 | 
Oxamflatin [Oxaflatin] | 12.4 | 6.54 | 
